ChEMBL document CHEMBL1201862, “PubChem BioAssay data set” (2004)
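Five compound concentrations were applied to cells in 96-well plates for 48 hours; endpoints were derived by simple linear interpolation of the resulting dose-response curve. GI50 marks 50% less growth.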 The source made the active and inactive calls. No stated cut-off is given here; in the data, active = GI50 up to about 1.1 µM and inactive = higher.

Columns and labels:
Experiment in all cases: NCI tumour cell line growth inhibition, 48 h
TK-10 = test system: TK-10
XF498 = test system: XF498
RXF 631 = test system: RXF 631
Malme-3M = test system: Malme-3M
SF-539 = test system: SF-539
COLO 205 = test system: COLO 205
MOLT-4 = test system: MOLT-4
SNB-19 = test system: SNB-19
OVCAR-4 = test system: OVCAR-4
NCI-H460 = test system: NCI-H460
SK-MEL-5 = test system: SK-MEL-5
SNB-78 = test system: SNB-78
RPMI-8226 = test system: RPMI-8226
SNB-75 = test system: SNB-75
HL-60 = test system: HL-60
CAKI-1 = test system: CAKI-1
786-0 = test system: 786-0
SW-620 = test system: SW-620
K562 = test system: K562
SK-MEL-28 = test system: SK-MEL-28
UACC-257 = test system: UACC-257
SK-OV-3 = test system: SK-OV-3
LXFL 529 = test system: LXFL 529
CCRF-CEM = test system: CCRF-CEM
M14 = test system: M14
UACC-62 = test system: UACC-62
HOP-92 = test system: HOP-92
OVCAR-5 = test system: OVCAR-5
A549 = test system: A549
SK-MEL-2 = test system: SK-MEL-2
EKVX = test system: EKVX
M19-MEL = test system: M19-MEL
OVCAR-8 = test system: OVCAR-8
OVCAR-3 = test system: OVCAR-3
HCT-116 = test system: HCT-116
A498 = test system: A498
SF-268 = test system: SF-268
DLD-1 = test system: DLD-1
SN12C = test system: SN12C
DMS-114 = test system: DMS-114
HOP-18 = test system: HOP-18
ACHN = test system: ACHN
UO-31 = test system: UO-31
HCT-15 = test system: HCT-15
U-251 = test system: U-251
HCC 2998 = test system: HCC 2998
IGROV-1 = test system: IGROV-1
SF-295 = test system: SF-295
NCI-H522 = test system: NCI-H522
DMS-273 = test system: DMS-273
HT-29 = test system: HT-29
HOP-62 = test system: HOP-62
NCI-H23 = test system: NCI-H23
KM-20L2 = test system: KM-20L2
RXF 393 = test system: RXF 393
KM12 = test system: KM12
LOX IMVI = test system: LOX IMVI
SR = test system: SR
NCI-H226 = test system: NCI-H226

c1ccc2c3c([nH]c2c1)[C@H]1C2CCCCN2CN1CC3 (stereo partly specified)
GI50 (TK-10): > 100 µM (inactive) | GI50 (XF498): > 100 µM (inactive) | GI50 (RXF 631): > 100 µM (inactive) | GI50 (Malme-3M): 83.6 µM (inactive) | GI50 (SF-539): > 100 µM (inactive) | GI50 (COLO 205): > 100 µM (inactive) | GI50 (MOLT-4): > 100 µM (inactive) | GI50 (SNB-19): > 100 µM (inactive) | GI50 (OVCAR-4): > 100 µM (inactive) | GI50 (NCI-H460): > 100 µM (inactive) | GI50 (SK-MEL-5): > 100 µM (inactive) | GI50 (SNB-78): 94.4 µM (inactive) | GI50 (RPMI-8226): > 100 µM (inactive) | GI50 (SNB-75): 27.1 µM (inactive) | GI50 (HL-60): 47.2 µM (inactive) | GI50 (CAKI-1): > 100 µM (inactive) | GI50 (786-0): > 100 µM (inactive) | GI50 (SW-620): > 100 µM (inactive) | GI50 (K562): > 100 µM (inactive) | GI50 (SK-MEL-28): > 100 µM (inactive) | GI50 (UACC-257): > 100 µM (inactive) | GI50 (SK-OV-3): > 100 µM (inactive) | GI50 (LXFL 529): > 100 µM (inactive) | GI50 (CCRF-CEM): > 100 µM (inactive) | GI50 (M14): > 100 µM (inactive) | GI50 (UACC-62): 51.8 µM (inactive) | GI50 (HOP-92): > 100 µM (inactive) | GI50 (OVCAR-5): > 100 µM (inactive) | GI50 (A549): > 100 µM (inactive) | GI50 (SK-MEL-2): > 100 µM (inactive) | GI50 (EKVX): > 100 µM (inactive) | GI50 (M19-MEL): > 100 µM (inactive) | GI50 (OVCAR-8): > 100 µM (inactive) | GI50 (OVCAR-3): > 100 µM (inactive) | GI50 (HCT-116): > 100 µM (inactive) | GI50 (A498): > 100 µM (inactive) | GI50 (SF-268): 51.6 µM (inactive) | GI50 (DLD-1): > 100 µM (inactive) | GI50 (SN12C): > 100 µM (inactive) | GI50 (DMS-114): 47.8 µM (inactive) | GI50 (HOP-18): > 100 µM (inactive) | GI50 (ACHN): > 100 µM (inactive) | GI50 (UO-31): > 100 µM (inactive) | GI50 (HCT-15): > 100 µM | GI50 (U-251): > 100 µM (inactive) | GI50 (HCC 2998): > 100 µM (inactive) | GI50 (IGROV-1): > 100 µM (inactive) | GI50 (SF-295): > 100 µM (inactive) | GI50 (NCI-H522): > 100 µM (inactive) | GI50 (DMS-273): > 100 µM (inactive) | GI50 (HT-29): 81.7 µM (inactive) | GI50 (HOP-62): > 100 µM (inactive) | GI50 (NCI-H23): > 100 µM (inactive) | GI50 (KM-20L2): > 100 µM (inactive) | GI50 (RXF 393): 89.9 µM (inactive)

N/N=C(\c1nc2ccc(Cl)cc2nc1O)C(O)c1ccc(Cl)c(Cl)c1 (stereo unspecified)
GI50 (TK-10): > 100 µM (inactive) | GI50 (XF498): > 100 µM (inactive) | GI50 (RXF 631): > 100 µM (inactive) | GI50 (KM12): 70.5 µM (inactive) | GI50 (Malme-3M): > 100 µM (inactive) | GI50 (SF-539): > 100 µM (inactive) | GI50 (COLO 205): 88.3 µM (inactive) | GI50 (MOLT-4): > 100 µM (inactive) | GI50 (SNB-19): > 100 µM (inactive) | GI50 (LOX IMVI): > 100 µM (inactive) | GI50 (OVCAR-4): 29.1 µM (inactive) | GI50 (NCI-H460): > 100 µM (inactive) | GI50 (SK-MEL-5): > 100 µM (inactive) | GI50 (SNB-78): > 100 µM (inactive) | GI50 (RPMI-8226): > 100 µM (inactive) | GI50 (SNB-75): 31 µM (inactive) | GI50 (HL-60): > 100 µM (inactive) | GI50 (SR): > 100 µM (inactive) | GI50 (786-0): 80.7 µM (inactive) | GI50 (SW-620): 59.2 µM (inactive) | GI50 (K562): > 100 µM (inactive) | GI50 (SK-MEL-28): > 100 µM (inactive) | GI50 (UACC-257): > 100 µM (inactive) | GI50 (SK-OV-3): > 100 µM (inactive) | GI50 (LXFL 529): > 100 µM (inactive) | GI50 (CCRF-CEM): > 100 µM (inactive) | GI50 (M14): > 100 µM (inactive) | GI50 (UACC-62): > 100 µM (inactive) | GI50 (HOP-92): > 100 µM (inactive) | GI50 (OVCAR-5): > 100 µM (inactive) | GI50 (A549): > 100 µM (inactive) | GI50 (SK-MEL-2): > 100 µM (inactive) | GI50 (EKVX): > 100 µM (inactive) | GI50 (M19-MEL): > 100 µM (inactive) | GI50 (OVCAR-8): 72.6 µM (inactive) | GI50 (OVCAR-3): > 100 µM (inactive) | GI50 (HCT-116): 48.1 µM (inactive) | GI50 (SF-268): > 100 µM (inactive) | GI50 (NCI-H226): > 100 µM (inactive) | GI50 (DLD-1): 46.7 µM (inactive) | GI50 (SN12C): > 100 µM (inactive) | GI50 (DMS-114): > 100 µM (inactive) | GI50 (ACHN): > 100 µM (inactive) | GI50 (UO-31): > 100 µM (inactive) | GI50 (HCT-15): > 100 µM | GI50 (U-251): > 100 µM (inactive) | GI50 (HCC 2998): > 100 µM (inactive) | GI50 (IGROV-1): > 100 µM (inactive) | GI50 (SF-295): > 100 µM (inactive) | GI50 (NCI-H522): > 100 µM (inactive) | GI50 (DMS-273): 81.1 µM (inactive) | GI50 (HT-29): > 100 µM (inactive) | GI50 (HOP-62): > 100 µM (inactive) | GI50 (NCI-H23): > 100 µM (inactive) | GI50 (KM-20L2): > 100 µM (inactive) | GI50 (RXF 393): > 100 µM (inactive)

NCCCNCCS [WR-1065]
GI50 (TK-10): > 100 µM (inactive) | GI50 (XF498): > 100 µM (inactive) | GI50 (RXF 631): > 100 µM (inactive) | GI50 (KM12): > 100 µM (inactive) | GI50 (MOLT-4): > 100 µM (inactive) | GI50 (SNB-19): > 100 µM (inactive) | GI50 (OVCAR-4): > 100 µM (inactive) | GI50 (SK-MEL-5): > 100 µM (inactive) | GI50 (SNB-78): > 100 µM (inactive) | GI50 (HL-60): > 100 µM (inactive) | GI50 (CAKI-1): > 100 µM (inactive) | GI50 (K562): > 100 µM (inactive) | GI50 (UACC-257): > 100 µM (inactive) | GI50 (SK-OV-3): > 100 µM (inactive) | GI50 (LXFL 529): > 100 µM (inactive) | GI50 (M14): > 100 µM (inactive) | GI50 (UACC-62): > 100 µM (inactive) | GI50 (HOP-92): > 100 µM (inactive) | GI50 (OVCAR-5): > 100 µM (inactive) | GI50 (A549): > 100 µM (inactive) | GI50 (SK-MEL-2): > 100 µM (inactive) | GI50 (EKVX): > 100 µM (inactive) | GI50 (OVCAR-8): > 100 µM (inactive) | GI50 (SF-268): > 100 µM (inactive) | GI50 (SN12C): > 100 µM (inactive) | GI50 (HOP-18): > 100 µM (inactive) | GI50 (UO-31): > 100 µM (inactive) | GI50 (HCT-15): > 100 µM | GI50 (U-251): > 100 µM (inactive) | GI50 (HCC 2998): > 100 µM (inactive) | GI50 (SF-295): > 100 µM (inactive) | GI50 (DMS-273): > 100 µM (inactive) | GI50 (HT-29): > 100 µM (inactive) | GI50 (KM-20L2): > 100 µM (inactive) | GI50 (RXF 393): > 100 µM (inactive)
